Data: patent publication US4407810A, “Thiazol-2-yl-oxamic acid derivatives, and therapeutic agents containing these compounds” (BASF Aktiengesellschaft, priority 1980, dated 1983)

Columns and labels:
[1] = tested on: passive cutaneous anaphylaxis (PCA); test: anti-allergic action, passive cutaneous anaphylaxis (PCA) model in rats; format: in vivo; conditions: for ED50: Rattus norvegicus, dose which reduces diameter of color patch by 50% vs non-medicated controls, read-out: Inhibition of PCA in rats (oral), ED 50%; for times more active than Comparative Compound V1 / R.A. (relative activity): PCA in rats; for times more active than Comparative Compound V1: after oral administration; for R.A. (relative activity): relative to V1 (=1)
Experimental: The anti-allergic action was tested on rats, using the passive cutaneous anaphylaxis (PCA) model.
Narcotized male rats (100-140 g) are sensitized by intradermal injection (into the shaved dorsal skin) of 0.1 ml of an ovalbumin antiserum. After a sensitization period of about 48 hours, the treatment (intraperitoneal or oral administration) is carried out with various dosages (10 animals/dose)of the test substances. 15-20 minutes after treatment, an antigen/Evans blue mixture (10 mg/kg of ovalbumin in 2% strength Evans blue solution) is intravenously injected into the test animals. 30 minutes later, the animals are sacrificed, the dorsal skin is removed and the diameter of the circular blue coloration is measured on the inner surface. The size of the color patches of untreated control animals can be standardized. Anti-allergic substances reduce the diameter of the color patch by an amount dependent on the dose. The ED 50% is quoted as the dose which reduces the diameter of the color patch by 50% relative to that of non-medicated control animals.

[2] = acute toxicity, rats, oral; conditions: rat, in vivo, Sprague-Dawley rats, 14 days post-observation, read-out: LD 50, rats oral
Experimental: (§1) In addition to the anti-allergic action, the acute toxicity was determined for intraperitoneal administration, using groups of 2 NMRI mice, each weighing 20-26 g, and for oral administration, using groups of 2 Sprague-Dawley rats, each weighing 120-150 g. The LD 50 was determined on groups of 10 NMRI mice, each weighing 20-26 g, after intraperitoneal administration. The post-observation period was 14 days.

[3] = acute toxicity (LD 50), mice, intraperitoneal; conditions: mouse, in vivo, ip, NMRI mice, 14 days post-observation
Experimental: as §1

Compound | ED50 ([1]; rats, oral) [mg/kg] | activity in PCA (in words) ([1]; rats, oral, up to 100 mg/kg) | LD50 at 336 h [2] [mg/kg] | LD50 at 336 h [3] [mg/kg] | times more active than Comparative Compound V1 [1] [times] | R.A. (relative activity) ([1]; oral)
O=C(O)c1cc(=O)c2c(OCC(O)COc3cccc4oc(C(=O)O)cc(=O)c34)cccc2o1 [Cromolyne, reference compound] | 100 | inactive | > 2150 | – | – | –
COCCOC(=O)C(=O)Nc1nc(-c2ccccc2)cs1 [Example 7, 2-Methoxyethyl N-(4-phenyl-thiazol-2-yl)-oxamate] | 2.24 | – | > 2150 | 655 | 3.87 | 3.87
CCOCCOC(=O)C(=O)Nc1nc(-c2ccccc2)cs1 [Example 9, 2-Ethoxyethyl N-(4-phenyl-thiazol-2-yl)-oxamate] | 0.0382 | – | > 2150 | 956 | 227 | 227
CCOCCOC(=O)C(=O)Nc1nc(-c2ccc(OC)cc2)cs1 [Example 14, 2-Ethoxyethyl N-[4-(4-methoxyphenyl)-thiazol-2-yl]-oxamate] | 0.619 | – | – | ~1000 | – | 14.0
CCOC(=O)C(=O)Nc1nc(-c2ccccc2)cs1 [Example V1, ethyl N-(4-phenyl-thiazol-2-yl)-oxamate, reference compound] | 8.67 | – | > 2150 | ~681 | – | 1
COCCOCCOC(=O)C(=O)Nc1nc(-c2ccccc2)cs1 [Example 11, 2-(ω-Methoxyethyleneoxy)-ethyl N-(4-phenyl-thiazol-2-yl)-oxamate] | 2.16 | – | > 2150 | 705 | – | 4.01
